Each structure is given as a SMILES string. Converted amounts (≈) assume the structure as drawn. “And” between values parts separate entries of the source, which are not always exact repeats. Identical values can stand only once. The source made the active and inactive calls. No cut-off for these calls is given here.

Common to all, as to type: functional
In assay [1] the test system is Dendroctonus ponderosae. Kind of assay: Insecticidal activity against adult Dendroctonus ponderosae assessed as mortality applied topically to ventral surface of insect mesothorax after 24 hr.
Assay [2] concerns Dendroctonus ponderosae. Kind of assay: Insecticidal activity against adult male Dendroctonus ponderosae assessed as mortality after 24 hr by filter paper assay.
The subject of assay [3] is Dendroctonus ponderosae. Kind of assay: Insecticidal activity against adult Dendroctonus ponderosae assessed as mortality after 12 hr by filter paper assay.
Assay [4] concerns Dendroctonus ponderosae. Nature of the assay: Insecticidal activity against adult male Dendroctonus ponderosae assessed as mortality applied topically to ventral surface of insect mesothorax after 24 hr.
The test system of assay [5] is Dendroctonus ponderosae. Nature of the assay: Insecticidal activity against adult female Dendroctonus ponderosae assessed as mortality applied topically to ventral surface of insect mesothorax after 24 hr.
Assay [6] relates to Dendroctonus ponderosae. Nature of the assay: Insecticidal activity against adult Dendroctonus ponderosae assessed as mortality after 24 hr by filter paper assay.
For assay [7], the system named is Dendroctonus ponderosae. Nature of the assay: Insecticidal activity against adult female Dendroctonus ponderosae assessed as mortality after 24 hr by filter paper assay.
Assay [8] has as its system Dendroctonus ponderosae. Nature of the assay: Insecticidal activity against adult Dendroctonus ponderosae assessed as mortality applied topically on the ventral surface of insect mesothorax after 12 hr. Conditions: topical.
Setting [9] is: Dendroctonus ponderosae, topical, 24 h, read-out: LC50.
[10] abbreviates: Dendroctonus ponderosae, 24 h, read-out: LC50.

In the case of `CNC(=O)c1cc(C#N)cc(C)c1NC(=O)c1cc(Br)nn1-c1ncccc1Cl` [CYANTRANILIPROLE], the LC50 (as a rule, the concentration that kills 50% of the test population) in the assay on Dendroctonus ponderosae [1] turned out to be 141.5 µg/mL (≈ 299 µM); in the assay with Dendroctonus ponderosae [1] (setting [9]) it was 271 µg/mL (≈ 571 µM); with Dendroctonus ponderosae [2], 1.7 µg/mL (≈ 3.59 µM); in the assay on Dendroctonus ponderosae [2] (setting [10]), 3.4 µg/mL (≈ 7.18 µM); in the assay on Dendroctonus ponderosae [3], 46.1 µg/mL (≈ 97.3 µM); in the assay with Dendroctonus ponderosae [3] (Dendroctonus ponderosae, 12 h, read-out: LC50), 56.8 µg/mL (≈ 120 µM). Also, the median lethal concentration (LC50) is 301.5 µg/mL and 102 µg/mL in the assay on Dendroctonus ponderosae [4]; 164.8 µg/mL (≈ 348 µM) in the assay on Dendroctonus ponderosae [5]; 258 µg/mL (≈ 544 µM) in the assay on Dendroctonus ponderosae [5] (setting [9]); 3 µg/mL and 6.2 µg/mL in the assay on Dendroctonus ponderosae [6].

As for `CNC(=O)c1cc(Cl)cc(C)c1NC(=O)c1cc(Br)nn1-c1ncccc1Cl` [CHLORANTRANILIPROLE], the LC50 in the assay with Dendroctonus ponderosae [1] (setting [9]) came to 1380 µg/mL (≈ 2870 µM); in the assay on Dendroctonus ponderosae [7], 72.7 µg/mL (≈ 150 µM); in the assay on Dendroctonus ponderosae [2] (setting [10]), 11 µg/mL (≈ 22.8 µM); with Dendroctonus ponderosae [8] it was 6300 µg/mL (≈ 13000 µM); in the assay with Dendroctonus ponderosae [4] (setting [9]), 1750 µg/mL (≈ 3620 µM); in the assay with Dendroctonus ponderosae [5] (setting [9]), 1110 µg/mL (≈ 2300 µM). Further, the median lethal concentration (LC50) in the assay on Dendroctonus ponderosae [6] (setting [10]) turned out to be 34.9 µg/mL (≈ 72.2 µM). In the assay on Dendroctonus ponderosae [3], the LC50 entry is “inactive”.
